Legend:
[1] = test system: ovarian (A2780) cancer cell line; conditions: A2780, WO2012/073217; cited from earlier work
[2] = test system: breast cancer (MCF7) cell line; conditions: MCF7, WO2012/073217; cited from earlier work
[3] = test system: L428, a Hodgkin's lymphoma cell line expressing low to moderate levels of CD30; assay: In vitro cytotoxicity assay (CellTiter-Glo) on L428; format: cell-based, human; conditions: CD30 LO L428 cells, 4 days, up to 20 μg/ml
Description: For this, cells were plated on 96-well plates in 100 μl RPMI/10% FCS at a density of 10^4 cells per well and grown at 37° C. in a humidified incubator at 5% CO2 atmosphere. After one day incubation, 25 μl medium was carefully removed from each well and replaced by 25 μl of 3.5-fold serial dilutions of each ADC in growth medium, resulting in final ADC concentrations ranging from 20 μg/ml to 0.25 ng/ml. Each dilution was done in duplicate. After 4 additional days, plates were removed from the incubator and equilibrated to room temperature. After approximately 30 minutes, 100 μl CellTiter-Glo® Luminescent Solution (Promega, Cat. No G7570) was added to each well and, after shaking the plates at 450 rpm for 5 min followed by a 10 min incubation without shaking, luminescence was measured on a Tecan Infinity F200 with an integration time of 1 second per well.
Cells were incubated with serial dilutions of ADCs for 4 days, after which CellTiter-Glo® Luminescent Solution (Promega) was added and viable cells were quantified by measuring the luminescence on a Tecan Infinity F200.

COc1cccc2c1C(=O)c1c(O)c3c(c(O)c1C2=O)C[C@@](O)(C(=O)CO)C[C@@H]3O[C@H]1C[C@H]2[C@H](O[C@@H]3[C@@H](OC)OCCN32)[C@H](C)O1 [PNU-159682]
potency for in vitro cell killing [1]: pico- to femtomolar range | potency for in vitro cell killing [2]: pico- to femtomolar range

cAc10-PNU-EDA-Gly5
cell killing (in words) [3]: only at higher concentrations, similar to the control ADCs employed

Adcetris
cell killing (in words) [3]: inefficient at killing
